Results published in patent US12673944B2, “Compounds having inhibitory activity against glucosylceramide synthase or pharmaceutically acceptable salt thereof, processes for preparing the same, and pharmaceutical compositions comprising the same” (YUHAN CORPORATION, priority 2019, dated 2026).

Key:
[1] = molecular target: T1, glucosylceramide synthase (GCS) (Homo sapiens, UniProt Q16739); experiment: GCS enzyme inhibition assay (A549 cell lysate, NBD C6-ceramide, HPLC fluorescence); type: biochemical; conditions: inhibitory activity against GCS, 37° C., 90 minutes
T1 construct: The obtained supernatant was used; host or cells: A549 cells (lysate supernatant after sonication)
T1 sequence (Q16739 1-394): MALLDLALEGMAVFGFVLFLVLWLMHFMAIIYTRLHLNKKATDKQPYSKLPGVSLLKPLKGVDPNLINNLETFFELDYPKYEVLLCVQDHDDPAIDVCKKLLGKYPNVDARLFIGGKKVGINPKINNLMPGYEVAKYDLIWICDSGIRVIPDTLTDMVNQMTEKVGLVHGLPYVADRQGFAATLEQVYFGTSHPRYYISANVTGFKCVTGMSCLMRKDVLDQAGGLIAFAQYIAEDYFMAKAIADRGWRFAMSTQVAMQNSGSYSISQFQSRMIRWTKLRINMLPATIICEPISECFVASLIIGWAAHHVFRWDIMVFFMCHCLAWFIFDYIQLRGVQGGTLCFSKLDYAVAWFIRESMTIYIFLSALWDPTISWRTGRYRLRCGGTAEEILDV
Outline: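 A549 cell lysate (50 mM HEPES pH 7.3) served as GCS source; reactions ran 90 min at 37° C, were stopped with chloroform/methanol and lipids extracted. Activity taken as GlcCer/(Cer+GlcCer) peak area, normalised between DMSO and ibiglustat controls.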

[2] = test system: GM1 production in Jurkat cells; experiment: cells; type: cell-based; conditions: Homo sapiens, Jurkat, 72 h

O=C(NC1CCSc2cc(-c3cccc(OC(F)(F)F)c3)ccc21)O[C@@H]1CN2CCC1CC2 (stereo partly drawn) [Example 320, (S)-quinuclidin-3-yl (7-(3-(trifluoromethoxy)phenyl)thiochroman-4-yl)carbamate]
IC50 [1]: 1.5 nM
IC50 [2]: 13.8 nM

COCOc1cccc(-c2ccc3c(c2)SCCC3NC(=O)O[C@@H]2CN3CCC2CC3)c1 (stereo partly drawn) [Example 321, (S)-quinuclidin-3-yl (7-(3-(methoxymethoxy)phenyl)thiochroman-4-yl)carbamate]
IC50 [1]: 1 nM
IC50 [2]: 3.64 nM

CC(C)(C)c1cccc(-c2ccc3c(c2)SCCC3NC(=O)O[C@@H]2CN3CCC2CC3)c1 (stereo partly drawn) [Example 322, (S)-quinuclidin-3-yl (7-(3-(tert-butyl)phenyl)thiochroman-4-yl)carbamate]
IC50 [1]: 1.78 nM
IC50 [2]: 5.88 nM

O=C(NC1CCSc2cc(-c3cc(Cl)ccc3Cl)ccc21)O[C@@H]1CN2CCC1CC2 (stereo partly drawn) [Example 323, (S)-quinuclidin-3-yl (7-(2,5-dichlorophenyl)thiochroman-4-yl)carbamate]
IC50 [1]: 0.63 nM
IC50 [2]: 26.3 nM

CCOc1cccc(-c2ccc3c(c2)SCCC3NC(=O)O[C@@H]2CN3CCC2CC3)c1 (stereo partly drawn) [Example 324, (S)-quinuclidin-3-yl (7-(3-ethoxyphenyl)thiochroman-4-yl)carbamate]
IC50 [1]: 1.25 nM
IC50 [2]: 14.4 nM

CSc1cccc(-c2ccc3c(c2)SCCC3NC(=O)O[C@@H]2CN3CCC2CC3)c1 (stereo partly drawn) [Example 325, (S)-quinuclidin-3-yl (7-(3-(methylthio)phenyl)thiochroman-4-yl)carbamate]
IC50 [1]: 0.58 nM
IC50 [2]: 6.13 nM

CN(C)c1cccc(-c2ccc3c(c2)SCCC3NC(=O)O[C@@H]2CN3CCC2CC3)c1 (stereo partly drawn) [Example 326, (S)-quinuclidin-3-yl (7-(3-(dimethylamino)phenyl)thiochroman-4-yl)carbamate]
IC50 [1]: 0.64 nM
IC50 [2]: 10.3 nM

O=C(NC1CCSc2cc(-c3ccc4c(c3)OC(F)(F)O4)ccc21)O[C@@H]1CN2CCC1CC2 (stereo partly drawn) [Example 327, (S)-quinuclidin-3-yl (7-(2,2-difluorobenzo[d][1,3]dioxol-5-yl)thiochroman-4-yl)carbamate]
IC50 [1]: 2.7 nM
IC50 [2]: 37.6 nM

O=C(NC1CCSc2cc(-c3coc4ccccc34)ccc21)O[C@@H]1CN2CCC1CC2 (stereo partly drawn) [Example 328, (S)-quinuclidin-3-yl (7-(benzofuran-3-yl)thiochroman-4-yl)carbamate]
IC50 [1]: 1.18 nM
IC50 [2]: 13.8 nM

CC1(C)CSc2ccc(-c3ccc(C(F)(F)F)cc3)cc2C1NC(=O)O[C@@H]1CN2CCC1CC2 (stereo partly drawn) [Example 329, (S)-quinuclidin-3-yl (3,3-dimethyl-6-(4-(trifluoromethyl)phenyl)thiochroman-4-yl)carbamate]
IC50 [1]: 14.9 nM
IC50 [2]: 33.8 nM

CC1(C)COc2cc(-c3cccc(F)c3)c(F)cc2C1NC(=O)O[C@@H]1CN2CCC1CC2 (stereo partly drawn) [Example 330, (S)-quinuclidin-3-yl (6-fluoro-7-(3-fluorophenyl)-3,3-dimethylchroman-4-yl)carbamate]
IC50 [1]: 0.28 nM
IC50 [2]: 1.8 nM

CC1(C)COc2cc(-c3ccc(F)cc3)c(F)cc2C1NC(=O)O[C@@H]1CN2CCC1CC2 (stereo partly drawn) [Example 331, (S)-quinuclidin-3-yl (6-fluoro-7-(4-fluorophenyl)-3,3-dimethylchroman-4-yl)carbamate]
IC50 [1]: 0.36 nM
IC50 [2]: 3.7 nM

CC1(C)COc2cc(-c3cccc(Cl)c3)c(F)cc2C1NC(=O)O[C@@H]1CN2CCC1CC2 (stereo partly drawn) [Example 332, (S)-quinuclidin-3-yl (6-fluoro-7-(3-chlorophenyl)-3,3-dimethylchroman-4-yl)carbamate]
IC50 [1]: 0.39 nM
IC50 [2]: 0.9 nM

CCc1cccc(-c2cc3c(cc2F)C(NC(=O)O[C@@H]2CN4CCC2CC4)C(C)(C)CO3)c1 (stereo partly drawn) [Example 333, (S)-quinuclidin-3-yl (7-(3-ethylphenyl)-6-fluoro-3,3-dimethylchroman-4-yl)carbamate]
IC50 [1]: 0.45 nM
IC50 [2]: 0.8 nM

CCc1ccc(-c2cc3c(cc2F)C(NC(=O)O[C@@H]2CN4CCC2CC4)C(C)(C)CO3)cc1 (stereo partly drawn) [Example 334, (S)-quinuclidin-3-yl (7-(4-ethylphenyl)-6-fluoro-3,3-dimethylchroman-4-yl)carbamate]
IC50 [1]: 0.33 nM
IC50 [2]: 0.4 nM

COc1cccc(-c2cc3c(cc2F)C(NC(=O)O[C@@H]2CN4CCC2CC4)C(C)(C)CO3)c1 (stereo partly drawn) [Example 335, (S)-quinuclidin-3-yl (6-fluoro-7-(3-methoxyphenyl)-3,3-dimethylchroman-4-yl)carbamate]
IC50 [1]: 0.35 nM
IC50 [2]: 2 nM

COc1ccc(-c2cc3c(cc2F)C(NC(=O)O[C@@H]2CN4CCC2CC4)C(C)(C)CO3)cc1 (stereo partly drawn) [Example 336, (S)-quinuclidin-3-yl (6-fluoro-7-(4-methoxyphenyl)-3,3-dimethylchroman-4-yl)carbamate]
IC50 [1]: 0.27 nM
IC50 [2]: 3.5 nM

CCOc1ccc(-c2cc3c(cc2F)C(NC(=O)O[C@@H]2CN4CCC2CC4)C(C)(C)CO3)cc1 (stereo partly drawn) [Example 337, (S)-quinuclidin-3-yl (7-(4-ethoxyphenyl)-6-fluoro-3,3-dimethylchroman-4-yl)carbamate]
IC50 [1]: 0.23 nM
IC50 [2]: 1.2 nM

CC1(C)COc2cc(-c3ccsc3)c(F)cc2C1NC(=O)O[C@@H]1CN2CCC1CC2 (stereo partly drawn) [Example 338, (S)-quinuclidin-3-yl (6-fluoro-3,3-dimethyl-7-(thiophen-3-yl)chroman-4-yl)carbamate]
IC50 [1]: 0.19 nM
IC50 [2]: 3.3 nM

CC(C)c1cccc(-c2cc3c(cc2F)C(NC(=O)O[C@@H]2CN4CCC2CC4)C(C)(C)CO3)c1 (stereo partly drawn) [Example 339, (S)-quinuclidin-3-yl (6-fluoro-7-(3-isopropylphenyl)-3,3-dimethylchroman-4-yl)carbamate]
IC50 [1]: 0.61 nM
IC50 [2]: 0.2 nM

COc1ccc(Cl)c(-c2cc3c(cc2F)C(NC(=O)O[C@@H]2CN4CCC2CC4)C(C)(C)CO3)c1 (stereo partly drawn) [Example 340, (S)-quinuclidin-3-yl (7-(2-chloro-5-methoxyphenyl)-6-fluoro-3,3-dimethylchroman-4-yl)carbamate]
IC50 [1]: 0.48 nM
IC50 [2]: 2.4 nM

COc1ccc(-c2cc3c(cc2F)C(NC(=O)O[C@@H]2CN4CCC2CC4)C(C)(C)CO3)c(F)c1 (stereo partly drawn) [Example 341, (S)-quinuclidin-3-yl (6-fluoro-7-(2-fluoro-4-methoxyphenyl)-3,3-dimethylchroman-4-yl)carbamate]
IC50 [1]: 0.17 nM
IC50 [2]: 4.1 nM

COc1ccc(-c2cc3c(cc2F)C(NC(=O)O[C@@H]2CN4CCC2CC4)C(C)(C)CO3)c(C)c1 (stereo partly drawn) [Example 342, (S)-quinuclidin-3-yl (6-fluoro-7-(4-methoxy-2-methylphenyl)-3,3-dimethylchroman-4-yl)carbamate]
IC50 [1]: 0.45 nM
IC50 [2]: 3.5 nM

CCCCc1ccc(-c2cc3c(cc2F)C(NC(=O)O[C@@H]2CN4CCC2CC4)C(C)(C)CO3)cc1 (stereo partly drawn) [Example 343, (S)-quinuclidin-3-yl (7-(4-butylphenyl)-6-fluoro-3,3-dimethylchroman-4-yl)carbamate]
IC50 [1]: 0.12 nM
IC50 [2]: 0.1 nM

CC(C)Oc1ccc(-c2cc3c(cc2F)C(NC(=O)O[C@@H]2CN4CCC2CC4)C(C)(C)CO3)cc1Cl (stereo partly drawn) [Example 344, (S)-quinuclidin-3-yl (7-(3-chloro-4-isopropoxyphenyl)-6-fluoro-3,3-dimethylchroman-4-yl)carbamate]
IC50 [1]: 0.58 nM
IC50 [2]: 7.3 nM

CC(C)(C)c1ccc(-c2cc3c(cc2F)C(NC(=O)O[C@@H]2CN4CCC2CC4)C(C)(C)CO3)cc1 (stereo partly drawn) [Example 345, (S)-quinuclidin-3-yl (7-(4-(tert-butyl)phenyl)-6-fluoro-3,3-dimethylchroman-4-yl)carbamate]
IC50 [1]: 0.37 nM
IC50 [2]: 1.6 nM

COc1c(C)cc(-c2cc3c(cc2F)C(NC(=O)O[C@@H]2CN4CCC2CC4)C(C)(C)CO3)cc1C (stereo partly drawn) [Example 346, (S)-quinuclidin-3-yl (6-fluoro-7-(4-methoxy-3,5-dimethylphenyl)-3,3-dimethylchroman-4-yl)carbamate]
IC50 [1]: 1.18 nM
IC50 [2]: 9.5 nM

CC(C)COc1ccc(-c2cc3c(cc2F)C(NC(=O)O[C@@H]2CN4CCC2CC4)C(C)(C)CO3)cc1 (stereo partly drawn) [Example 347, (S)-quinuclidin-3-yl (6-fluoro-7-(4-isobutoxyphenyl)-3,3-dimethylchroman-4-yl)carbamate]
IC50 [1]: 0.23 nM
IC50 [2]: 0.02 nM

CC(C)Oc1ccc(-c2cc3c(cc2F)C(NC(=O)O[C@@H]2CN4CCC2CC4)C(C)(C)CO3)cn1 (stereo partly drawn) [Example 348, (S)-quinuclidin-3-yl (6-fluoro-7-(6-isopropoxypyridin-3-yl)-3,3-dimethylchroman-4-yl)carbamate]
IC50 [1]: 0.24 nM
IC50 [2]: 0.5 nM

COc1cc2c(cc1-c1cccc(F)c1)OCC(C)(C)C2NC(=O)O[C@@H]1CN2CCC1CC2 (stereo partly drawn) [Example 349, (S)-quinuclidin-3-yl (7-(3-fluorophenyl)-6-methoxy-3,3-dimethylchroman-4-yl)carbamate]
IC50 [1]: 0.32 nM
IC50 [2]: 3.2 nM

COc1cc2c(cc1-c1ccc(F)cc1)OCC(C)(C)C2NC(=O)O[C@@H]1CN2CCC1CC2 (stereo partly drawn) [Example 350, (S)-quinuclidin-3-yl (7-(4-fluorophenyl)-6-methoxy-3,3-dimethylchroman-4-yl)carbamate]
IC50 [1]: 0.47 nM
IC50 [2]: 7.5 nM

COc1cc2c(cc1-c1cccc(Cl)c1)OCC(C)(C)C2NC(=O)O[C@@H]1CN2CCC1CC2 (stereo partly drawn) [Example 351, (S)-quinuclidin-3-yl (7-(3-chlorophenyl)-6-methoxy-3,3-dimethylchroman-4-yl)carbamate]
IC50 [1]: 0.45 nM
IC50 [2]: 1.7 nM
